According to ChEMBL document CHEMBL1201862, “PubChem BioAssay data set” (2004):
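The compound was tested at five concentrations on cells cultured in 96-well plates, with a 48-hour exposure period. GI50: concentration for 50% inhibition of growth.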 Active and inactive are the calls of the source. Cut-off read from the data, not from the text of the source: active = GI50 up to about 1.1 µM and inactive = higher.

Legend:
Experiment in all cases: NCI-60 cell line screen, 48 h
SNB-75 = test system: SNB-75
NCI-H23 = test system: NCI-H23
SK-MEL-5 = test system: SK-MEL-5
NCI-H226 = test system: NCI-H226
RPMI-8226 = test system: RPMI-8226
COLO 205 = test system: COLO 205
U-251 = test system: U-251
DU-145 = test system: DU-145
OVCAR-8 = test system: OVCAR-8
SF-539 = test system: SF-539
SR = test system: SR
SK-MEL-28 = test system: SK-MEL-28
UACC-62 = test system: UACC-62
EKVX = test system: EKVX
Malme-3M = test system: Malme-3M
SW-620 = test system: SW-620
HL-60 = test system: HL-60
UO-31 = test system: UO-31
IGROV-1 = test system: IGROV-1
M14 = test system: M14

Measured: GI50

COc1ccccc1N1C(=O)C2C3c4ccccc4C(OC(C)=O)(c4ccccc43)C2C1=O (stereo not given)
inactive: SNB-75 17.5 µM | NCI-H23 > 100 µM | SK-MEL-5 > 100 µM | NCI-H226 > 100 µM | RPMI-8226 > 100 µM | COLO 205 > 100 µM | U-251 60.7 µM | DU-145 > 100 µM | OVCAR-8 43 µM | SF-539 72.1 µM | SR > 100 µM | SK-MEL-28 71.9 µM | UACC-62 > 100 µM | EKVX > 100 µM | Malme-3M 33.8 µM | SW-620 > 100 µM | HL-60 > 100 µM | UO-31 > 100 µM | IGROV-1 > 100 µM | M14 > 100 µM

CC(C)(C)c1cc(C(P(=O)(c2ccccc2)c2ccccc2)P(=O)(c2ccccc2)c2ccccc2)cc(C(C)(C)C)c1O
inactive: SNB-75 2.71 µM | NCI-H23 2.84 µM | SK-MEL-5 1.54 µM | NCI-H226 3.44 µM | RPMI-8226 3.19 µM | COLO 205 1.87 µM | U-251 2.77 µM | DU-145 3.3 µM | OVCAR-8 2.44 µM | SF-539 2.25 µM | SR 2.28 µM | SK-MEL-28 1.95 µM | UACC-62 1.58 µM | EKVX 2.98 µM | Malme-3M 2.47 µM | SW-620 3.21 µM | HL-60 3.03 µM | UO-31 2.24 µM | IGROV-1 3.12 µM | M14 1.75 µM

C[n+]1cn(C2=C([N-]S(=O)(=O)c3ccccc3)C(=O)c3ccccc3C2=O)c2ccccc21
inactive: SNB-75 24.3 µM | NCI-H23 16 µM | SK-MEL-5 6.08 µM | NCI-H226 56.4 µM | RPMI-8226 71.3 µM | COLO 205 2.85 µM | U-251 19.3 µM | DU-145 52.7 µM | OVCAR-8 20 µM | SF-539 31.4 µM | SR 44.6 µM | SK-MEL-28 36.1 µM | UACC-62 22.5 µM | EKVX > 100 µM | Malme-3M 1.55 µM | SW-620 28.6 µM | HL-60 13 µM | UO-31 > 100 µM | IGROV-1 17.3 µM | M14 16.5 µM

NS(=O)(=O)c1ccc(NC(=O)c2cccc3cc4ccccc4nc23)cc1
inactive: SNB-75 > 37.4 µM | NCI-H23 20.5 µM | SK-MEL-5 17.3 µM | NCI-H226 25.9 µM | RPMI-8226 8.32 µM | COLO 205 12.2 µM | U-251 23.4 µM | DU-145 > 100 µM | OVCAR-8 6.3 µM | SF-539 13.8 µM | SR 4.58 µM | SK-MEL-28 > 91 µM | UACC-62 66.5 µM | EKVX > 100 µM | Malme-3M 12.2 µM | SW-620 6.04 µM | HL-60 25.9 µM | UO-31 8.07 µM | IGROV-1 > 78.2 µM | M14 > 72.1 µM
